Measurements from paper PMC9668969 (Nature Communications, 2022).
“And” between values parts separate entries of the source, which are not always exact repeats. Equal values may be shown once.

Key:
ELIC = details: cited from earlier work
WT ELIC = assay: Asymmetric liposome stopped-flow Tl+ flux assay (no exchange vs exchange, 25 mol% outer leaflet POPG); type: biochemical, Erwinia chrysanthemi; parameters: key to Tl+ flux quenching rate, Avg. / Tl+ flux quenching rate: Tl+ influx rate kt at 2 ms from stretched-exponential fit (Eq. 2b); details: for Tl+ flux quenching rate, Avg. / Tl+ flux quenching rate: No-exchange: WT in 3:1 PC:PE with just beta-CD, 10 mM propylamine; for Tl+ flux quenching rate: single experiments
Method: The fluorescence sequential-mixing stopped-flow liposomal flux measurements were carried using an SX20 stopped-flow spectrofluorometer (Applied Photophysics) and Pro-Data SX software[13],[30]. 7.5 mg of the respective lipid mixture (POPC, 1:1 POPC: POPE, 1:1 POPC:POPG, 3:1 POPC:POPE, 3:1 POPC:POPG, 2:1:1 POPC:POPE:POPG) was dried in a glass vial to a thin film under a constant stream of N2. The lipids were then further dried under vacuum in a desiccator overnight. The following day the lipids were hydrated in 500 µl of reconstitution buffer (100 mM NaNO3, 10 mM HEPES, pH 7) (Buffer R), 250 µl of 75 mM 8-Aminonaphthalene-1,3,6-Trisulfonic Acid (ANTS, ThermoFisher Scientific) in buffer R, and doped with ~18 mg of CHAPS (Anatrace). The mixture was vortexed and then sonicated with heat until completely solubilized. Following the sonication, the solution was brought to RT then 3.5 µl of 6.7 mg/ml ELIC in Buffer A with 0.02% DDM was added (3 µg per mg of lipid). This combined solution was incubated at RT for 30 min, followed by the addition of 1 ml of 1:1 v/v SM-2 BioBeads in Buffer R and an additional 250 µl of 75 mM ANTS in Buffer R. This mixture was incubated at RT for 2.5 hr with gentle mixing. The liposome suspension was then extruded with an Avanti mini-extruder and 0.1 µm membrane (30×). The extruded liposomes were stored at 13 °C overnight with gentle rotation. The next day, the liposomes were diluted to 2.5 mL using assay buffer (140 mM NaNO3, 10 mM HEPES, pH 7) (Stopped-flow Buffer A), loaded into a PD-10 desalting column (Cytiva), eluted with 3 mL of Stopped-flow Buffer A and subsequently diluted 5-fold with Stopped-flow Buffer A.
Using propylamine as the agonist, the assay and analysis was carried out as previously described[13],[30]. ELIC-containing liposomes were first mixed 1:1 with Buffer A containing 2× the concentration of propylamine. After a variable delay of 10 ms to 25 s, the sample was then mixed 1:1 with a quenching buffer (90 mM NaNO3, 50 mM TlNO3, 10 mM HEPES, pH 7), and ANTS fluorescence (ex. 360 nm, fluorescence above 420 nm) was recorded for 1 s. For each delay time, 5 repeat measurements were obtained. The data were collected using Applied Photophysics Pro-Data SX software. The fluorescence quenching traces were fit to a stretched exponential (Eq. 2a) and the rate of Tl^+ influx was determined at 2 ms (Eq. 2b).2a Ft=F∞+F0−F∞⋅e^−t/τ^β 2b kt=β/τ⋅2ms/τ^(β−1) where Ft, F∞, F0 are the fluorescence at time t, final fluorescence and initial fluorescence. τ is the time constant, β the stretched exponential factor, and kt the calculated rate of Tl^+ influx at 2 ms. The time course of desensitization was also fit to a double exponential and a weighted time constant was calculated as was done for the patch-clamp data using Origin 2019b. All replicates were taken from independent samples.
Acceptor liposomes were prepared as described in the Stopped-flow fluorescence recordings section until completion of the extrusion step. The preparation was scaled up 2x to produce samples for the no-exchange and exchange conditions. After extrusion and storage of the liposomes overnight at 13 °C, the double liposome preparation was split into two equal volume aliquots of ~1.5 ml. Using the excel spreadsheet provided by Markones et al.[44], donor POPG and methyl-β-cyclodextrin (MβCD, Sigma) concentrations and volumes were calculated to produce an outer leaflet POPG content of 25 mol% in the liposomes. The calculations assumed a ~6.66 mM lipid concentration and 1.5 mL volume of the acceptor liposome solution[44]. A MβCD-POPG (50% saturation of MβCD by POPG) solution was formed by combining 224 µL 7.5 mM POPG in Stopped-flow Buffer A, 650 µl 300 mM MβCD in Stopped-flow Buffer A, and 126 µL Stopped-flow Buffer A, which was then mixed at 50 °C and 1000 RPM for 20 min using an Eppendorf thermomixer. […]

Compound: cardiolipin
- effect on ELIC (ELIC): positively modulates ELIC

Compound: CC/C=C\C/C=C\C/C=C\C/C=C\C/C=C\C/C=C\CCC(=O)O [DHA, docosahexaenoic acid]
- effect on ELIC agonist response (ELIC): decreases peak agonist response and increases desensitization

Compound: methyl-β-cyclodextrin
- Tl+ flux quenching rate, Avg. (WT ELIC; delay 0.01 s): 12.9647
- Tl+ flux quenching rate, Avg. (WT ELIC; delay 0.025 s): 13.7625
- Tl+ flux quenching rate, Avg. (WT ELIC; delay 0.05 s): 18.86
- Tl+ flux quenching rate, Avg. (WT ELIC; delay 0.1 s): 31.5581
- Tl+ flux quenching rate, Avg. (WT ELIC; delay 0.25 s): 29.5756
- Tl+ flux quenching rate, Avg. (WT ELIC; delay 0.5 s): 31.8845
- Tl+ flux quenching rate, Avg. (WT ELIC; delay 1 s): 34.9406
- Tl+ flux quenching rate, Avg. (WT ELIC; delay 2.5 s): 21.2322
- Tl+ flux quenching rate, Avg. (WT ELIC; delay 5 s): 10.788
- Tl+ flux quenching rate, Avg. (WT ELIC; delay 10 s): 2.374
- Tl+ flux quenching rate, Avg. (WT ELIC; delay 25 s): 1.305
- effect on ELIC responses (WT ELIC; methyl-β-cyclodextrin alone, 3:1 POPC:POPE liposomes): did not alter ELIC responses
- Tl+ flux quenching rate (WT ELIC; delay 0.025 s): 9.097 and 18.0228 and 11.9906 and 15.9401
- Tl+ flux quenching rate (WT ELIC; delay 0.25 s): 35.4461 and 38.8846 and 20.2406 and 23.7309
- Tl+ flux quenching rate (WT ELIC; delay 2.5 s): 25.1548 and 26.3221 and 15.7795 and 17.6721
- Tl+ flux quenching rate (WT ELIC; delay 5 s): 10.4577 and 9.241 and 15.1687 and 8.284
